What was measured:
JAK3 = JAK3 (Homo sapiens, UniProt P52333); experiment: In vitro kinase assay
Ba/F3-EPOR = experiment: MTT assay for cell proliferation; assay type: cell-based, Murine; settings: Mus musculus, 72 h, read-out: IC50(μM) ± SD, tumor cell proliferation
Protocol: For in vitro inhibition assays, cells were seeded in 96-well culture plates with a density of 15,000–20,000 cells/well after the cells reached 70–90% confluence. […] MTT (3-(4, 5-dimethylthiazol-2-yl)-2, 5-diphenyltetrazolium bromide) (Cat. No. 1334GR001; BioFroxx) assay was conducted in order to examine viability. The IC50 values were fitted using GraphPad Prism 7.0.

Sequence of JAK3 (P52333 whole entry): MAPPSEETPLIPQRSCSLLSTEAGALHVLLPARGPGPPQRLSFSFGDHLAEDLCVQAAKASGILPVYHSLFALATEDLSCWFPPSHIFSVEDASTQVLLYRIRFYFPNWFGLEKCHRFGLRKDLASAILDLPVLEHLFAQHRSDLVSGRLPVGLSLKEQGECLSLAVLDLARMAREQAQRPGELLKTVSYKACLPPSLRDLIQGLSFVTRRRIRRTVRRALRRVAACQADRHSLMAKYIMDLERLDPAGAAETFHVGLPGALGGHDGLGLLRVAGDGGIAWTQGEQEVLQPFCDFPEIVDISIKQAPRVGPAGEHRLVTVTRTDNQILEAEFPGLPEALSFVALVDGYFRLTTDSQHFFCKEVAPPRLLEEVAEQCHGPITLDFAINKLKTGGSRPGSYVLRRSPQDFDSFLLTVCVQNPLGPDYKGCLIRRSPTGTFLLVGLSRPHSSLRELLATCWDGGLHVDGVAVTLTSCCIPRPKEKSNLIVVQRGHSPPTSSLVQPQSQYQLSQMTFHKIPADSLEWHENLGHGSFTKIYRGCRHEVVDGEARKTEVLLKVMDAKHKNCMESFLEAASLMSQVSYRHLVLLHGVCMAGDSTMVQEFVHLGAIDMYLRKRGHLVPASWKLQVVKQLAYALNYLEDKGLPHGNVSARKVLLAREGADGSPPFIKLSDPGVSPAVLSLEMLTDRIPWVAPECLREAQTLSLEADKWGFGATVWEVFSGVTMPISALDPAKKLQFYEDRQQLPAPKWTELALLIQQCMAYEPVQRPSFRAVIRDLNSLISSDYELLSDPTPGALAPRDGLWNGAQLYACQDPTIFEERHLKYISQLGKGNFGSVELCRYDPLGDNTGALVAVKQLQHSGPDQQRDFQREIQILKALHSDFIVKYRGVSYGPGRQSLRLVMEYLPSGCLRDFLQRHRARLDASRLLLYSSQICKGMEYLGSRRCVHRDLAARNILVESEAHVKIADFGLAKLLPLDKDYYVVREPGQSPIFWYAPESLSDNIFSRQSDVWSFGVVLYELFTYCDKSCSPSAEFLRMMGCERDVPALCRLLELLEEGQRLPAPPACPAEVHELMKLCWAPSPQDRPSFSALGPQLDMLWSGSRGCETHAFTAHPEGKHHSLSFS

Structure (SMILES): Cc1cnc(Nc2ccc(N3CCC(N(C)CCO)CC3)c(F)c2)nc1-c1cnn(C(C)C)c1 [FM, 2-((1-(2-fluoro-4-((4-(1-isopropyl-1H-pyrazol-4-yl)-5-methylpyrimidin-2-yl)amino)phenyl)piperidin-4-yl)(methyl)amino)ethan-1-ol]
- IC50 (JAK3): 557 nM
- IC50 (Ba/F3-EPOR): 0.55 ± 0.13 µM
